Experimental data from publication PMC8440871, “LC-Q-Orbitrap-MS/MS Characterization, Antioxidant Activity, and α-Glucosidase-Inhibiting Activity With In Silico Analysis of Extract From Clausena Indica (Datz.) Oliv Fruit Pericarps” (Frontiers in Nutrition, 2021).
≈ marks a conversion by molar mass, not a printed value.

Target: α-Glucosidase from Saccharomyces cerevisiae (Saccharomyces cerevisiae, UniProt P53341)
Test: α-Glucosidase inhibiting activity (α-GIA), p-NPG substrate
Type: biochemical
Conditions: 0.5 U/ml enzyme, pH 6.8, 37°C, 5 mM p-NPG

Sequence of α-Glucosidase from Saccharomyces cerevisiae (P53341 whole entry): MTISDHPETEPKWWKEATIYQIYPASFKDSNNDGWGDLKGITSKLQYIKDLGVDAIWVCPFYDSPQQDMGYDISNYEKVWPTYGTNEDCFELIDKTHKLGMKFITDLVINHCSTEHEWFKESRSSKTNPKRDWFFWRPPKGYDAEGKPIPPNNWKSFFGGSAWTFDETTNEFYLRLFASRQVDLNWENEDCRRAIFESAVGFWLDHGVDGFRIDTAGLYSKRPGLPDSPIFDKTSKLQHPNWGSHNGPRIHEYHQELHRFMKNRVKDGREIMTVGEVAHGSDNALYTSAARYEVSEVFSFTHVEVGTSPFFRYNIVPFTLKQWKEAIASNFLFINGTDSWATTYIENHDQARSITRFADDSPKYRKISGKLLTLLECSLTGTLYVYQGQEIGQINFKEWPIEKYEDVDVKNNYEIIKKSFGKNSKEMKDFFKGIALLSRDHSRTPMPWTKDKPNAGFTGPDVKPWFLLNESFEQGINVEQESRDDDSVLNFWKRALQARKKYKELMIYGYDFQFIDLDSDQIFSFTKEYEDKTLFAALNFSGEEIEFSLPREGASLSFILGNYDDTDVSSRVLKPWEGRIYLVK

IC50 α-GIA: 374.23 µg/mL (≈ 1290 µM)
Structure (SMILES): Oc1cc(O)c2c(c1)O[C@H](c1ccc(O)c(O)c1)[C@@H](O)C2 [(+)-Catechin]
